“Also recorded” adds a separate entry of the source.
How the values were obtained:
[1] = parameters: species or system rhesus monkeys; conditions: rhesus monkey, in vivo, sc, 15 mg/kg
Protocol: (§1) Nine rhesus monkeys (male, 2 years old, 2-3 kg) were seronegative for SIV, Simian T cell Leukemia Virus (STLV), B virus and Type D retroviruses. 15 mg/kg body weight of COMPOUND A was subcutaneously administered into animals twice a day (12 h interval) for 28 d. Animals were divided into three groups. All animals were intravenously administered with 100 TCID50 of RT-SHIV The first group consisted of three animals treated with COMPOUND A from 8 h post exposure for 28 d. The second group of animals was treated with COMPOUND A from 24 h post exposure for 28 d. The third group (control) received the solvent that was used to dissolve COMPOUND A (PEG400:glycerol:water=[…]) from 8 h post exposure for 28 d.
(§2) Blood was collected from all the animals either just before or 2 h after the drug administration on 0, 3, 7, 10, 14, 21, 29 d post exposure in order to check the drug concentration, otherwise in intervals of 2 to 8 weeks. Biopsy of inguinal lymph nodes was conducted on 17 d or 18 d and 8 weeks post exposure in two animals per group. Cerebrospinal fluid (CSF) was collected from the animals just before biopsy.
Determination of COMPOUND A Concentration in Plasma and CSF:
Blood was collected from all animals just before or 2 h after drug administration to check trough (lowest) or highest blood concentration of the drug. COMPOUND A concentration in CSF was determined by HPLC.

RT-SHIV [2] = assay: RT-SHIV proviral DNA in PBMC and LNMC (quantitative PCR); type: in vivo, rhesus monkeys; conditions: for RT-SHIV proviral DNA in LNMC: 8 w p.e.
Protocol: as §1, §2
T-SHIV DNA Amount in Peripheral Blood Mononuclear Cells (PBMC) and Lymph Node Cells (LNC):
PBMC were separated by Ficoll-Hypaque gradient centrifugation. Cellular DNA was purified from 1×10^6 cells with a commercial DNA purification kit (Qiagen). Gag sequence of viral DNA was PCR amplified with the primers SG05i and SG06i. Nested PCR amplification with two sets of primers, i.e. F34C (nt. 9065 to 9082)(5′-CCTACCTACAATATGGGT-3′) and F35C (nt. 9800 to 9778)(5′-[…]-3′), the second primers: N3 (nt. 9182 to 9201)(5′-GMGATGGATACTCGCAATC-3′) and N4, (nt. 9552 to 9533)(5′-TMTCCTGCCAATCTGGTAT-3′) was performed to detect one copy per 100,000 cells. Detection and quantitative determination of the viral DNA copy number was conducted as described for plasma viral load. The cell numbers of PBMC and LNC were estimated by imaging analysis of cyber green-stained chromosomal DNA separated by agarose gel electrophoresis.
The detection limit was 1 copy DNA per 100,000 cells. In contrast to the untreated animals, the proviral DNA levels were very low in the treated groups.

RT-SHIV [3] = assay: Cytotoxic lymphocytes (CTL) assay against env and gag-pol; type: in vivo, rhesus monkeys; conditions: treated animals; all time points tested (3 w to 40 w post exposure)
RT-SHIV [4] = assay: env specific cell proliferation assay; type: in vivo, rhesus monkeys
Protocol: as §1
Cell Proliferation Assay:
The method used was described previously [J. Virol, 1996: 70, 678-681]. In brief, PBMC was thawed and incubated as described in the CTL assay. Triplicates of PBMC (4×10^5) cells were incubated with autologous B-LCL (1×10^5) that had been infected with SIV env-rvv or control vv and fixed with 1.5% paraformaldehyde in phosphate buffered saline (PBS). ^3H-thymidine was added to 8 h before harvesting. The incorporation of ^3H-thymidine was measured by liquid scintillation counting. The stimulation index was calculated as (mean c.p.m. of PBMC cultured with env-rvv/mean c.p.m. of PBMC cultured with control vv).

CC[C@H]1C(=O)Nc2ccc(F)cc2N1C(=O)OC(C)C [Compound A, (3S)-ethyl-6-fluoro-4-isopropyloxycarbonyl-3,4-dihydroquinoxalin-2(1H)-one]
concentration in cerebral spinal fluid (CSF) relative to blood [1]: approximately one tenth
minimum level of the drug [1]: higher than the effective minimal concentration
trough concentration relative to the IC90 value [1]: 3 fold
RT-SHIV proviral DNA in PBMC (RT-SHIV [2]; animal #1, treated 8h thru 28 dpi, 2 w p.e.): 0 viral DNA copies/100,000 cells
RT-SHIV proviral DNA in PBMC (RT-SHIV [2]; animal #1, treated 8h thru 28 dpi, 4 w p.e.): 0 viral DNA copies/100,000 cells
RT-SHIV proviral DNA in PBMC (RT-SHIV [2]; animal #1, treated 8h thru 28 dpi, 15 w p.e.): 1 viral DNA copies/100,000 cells
RT-SHIV proviral DNA in PBMC (RT-SHIV [2]; animal #1, treated 8h thru 28 dpi, 40 w p.e.): 0 viral DNA copies/100,000 cells
RT-SHIV proviral DNA in PBMC (RT-SHIV [2]; animal #1, treated 8h thru 28 dpi, 50 w p.e.): 0 viral DNA copies/100,000 cells
RT-SHIV proviral DNA in PBMC (RT-SHIV [2]; animal #3, treated 24 h thru 28 d pi, 2 w p.e.): 0 viral DNA copies/100,000 cells
RT-SHIV proviral DNA in PBMC (RT-SHIV [2]; animal #3, treated 24 h thru 28 d pi, 4 w p.e.): 0 viral DNA copies/100,000 cells
RT-SHIV proviral DNA in PBMC (RT-SHIV [2]; animal #3, treated 24 h thru 28 d pi, 15 w p.e.): 16 viral DNA copies/100,000 cells
RT-SHIV proviral DNA in PBMC (RT-SHIV [2]; animal #3, treated 24 h thru 28 d pi, 40 w p.e.): 0 viral DNA copies/100,000 cells
RT-SHIV proviral DNA in PBMC (RT-SHIV [2]; animal #3, treated 24 h thru 28 d pi, 50 w p.e.): 2 viral DNA copies/100,000 cells
RT-SHIV proviral DNA in PBMC (RT-SHIV [2]; animal #4, treated 24 h thru 28 d pi, 2 w p.e.): 0 viral DNA copies/100,000 cells
RT-SHIV proviral DNA in PBMC (RT-SHIV [2]; animal #4, treated 24 h thru 28 d pi, 4 w p.e.): 0 viral DNA copies/100,000 cells
RT-SHIV proviral DNA in LNMC (RT-SHIV [2]; animal #4, treated 24 h thru 28 d pi): 1 viral DNA copies/100,000 cells
RT-SHIV proviral DNA in PBMC (RT-SHIV [2]; animal #4, treated 24 h thru 28 d pi, 15 w p.e.): 0 viral DNA copies/100,000 cells
RT-SHIV proviral DNA in PBMC (RT-SHIV [2]; animal #4, treated 24 h thru 28 d pi, 40 w p.e.): 0 viral DNA copies/100,000 cells
RT-SHIV proviral DNA in PBMC (RT-SHIV [2]; animal #4, treated 24 h thru 28 d pi, 50 w p.e.): 0 viral DNA copies/100,000 cells
RT-SHIV proviral DNA in PBMC (RT-SHIV [2]; animal #5, treated 8h thru 28 dpi, 2 w p.e.): 0 viral DNA copies/100,000 cells
RT-SHIV proviral DNA in PBMC (RT-SHIV [2]; animal #5, treated 8h thru 28 dpi, 4 w p.e.): 0 viral DNA copies/100,000 cells
RT-SHIV proviral DNA in LNMC (RT-SHIV [2]; animal #5, treated 8h thru 28 dpi): 2 viral DNA copies/100,000 cells
RT-SHIV proviral DNA in PBMC (RT-SHIV [2]; animal #5, treated 8h thru 28 dpi, 15 w p.e.): 0 viral DNA copies/100,000 cells
RT-SHIV proviral DNA in PBMC (RT-SHIV [2]; animal #5, treated 8h thru 28 dpi, 40 w p.e.): 0 viral DNA copies/100,000 cells
RT-SHIV proviral DNA in PBMC (RT-SHIV [2]; animal #5, treated 8h thru 28 dpi, 50 w p.e.): 0 viral DNA copies/100,000 cells
RT-SHIV proviral DNA in PBMC (RT-SHIV [2]; animal #10, treated 8h thru 28 dpi, 2 w p.e.): 0 viral DNA copies/100,000 cells
RT-SHIV proviral DNA in PBMC (RT-SHIV [2]; animal #10, treated 8h thru 28 dpi, 4 w p.e.): 0 viral DNA copies/100,000 cells
RT-SHIV proviral DNA in PBMC (RT-SHIV [2]; animal #10, treated 8h thru 28 dpi, 15 w p.e.): 7 viral DNA copies/100,000 cells
RT-SHIV proviral DNA in PBMC (RT-SHIV [2]; animal #10, treated 8h thru 28 dpi, 40 w p.e.): 1 viral DNA copies/100,000 cells
RT-SHIV proviral DNA in PBMC (RT-SHIV [2]; animal #10, treated 8h thru 28 dpi, 50 w p.e.): 5 viral DNA copies/100,000 cells
RT-SHIV proviral DNA in PBMC (RT-SHIV [2]; animal #11, treated 24 h thru 28 d pi, 2 w p.e.): 0 viral DNA copies/100,000 cells
RT-SHIV proviral DNA in PBMC (RT-SHIV [2]; animal #11, treated 24 h thru 28 d pi, 4 w p.e.): 0 viral DNA copies/100,000 cells
RT-SHIV proviral DNA in PBMC (RT-SHIV [2]; animal #11, treated 24 h thru 28 d pi, 15 w p.e.): 1 viral DNA copies/100,000 cells
RT-SHIV proviral DNA in PBMC (RT-SHIV [2]; animal #11, treated 24 h thru 28 d pi, 40 w p.e.): 0 viral DNA copies/100,000 cells
RT-SHIV proviral DNA in PBMC (RT-SHIV [2]; animal #11, treated 24 h thru 28 d pi, 50 w p.e.): 0 viral DNA copies/100,000 cells
proviral DNA levels (persistent infection) in treated groups relative to untreated (RT-SHIV [2]; treated groups versus untreated animals): very low; also recorded: far lower level of persistent infection
CTL activity against env and gag-pol (RT-SHIV [3]): constant high CTL activity
proliferative response at week 40 (RT-SHIV [4]; all treated animals versus untreated group): levels higher than those of the untreated group
env specific proliferative responses (RT-SHIV [4]; all treated animals, 3 weeks through 40 weeks post exposure, versus untreated): Significantly higher

Source: patent publication US20020165233A1, “Quinoxaline containing medicaments for post exposure prophylaxis of an HIV infection” (priority 1999, published 2002)
